Measured values published in patent US20260022142A1, “MACROCYCLIC IMMUNOMODULATORS” (Bristol-Myers Squibb Company, priority 2022, published 2026).
pIC50: −log10 of the molar value. Numbered stars: 1 amine (or outer) side, 2 acyl side, 3 side chain; on linkers, the order of the positions; unused ones are H or OH. Bridge positions count the residues as written; N and C are the ends. Square brackets hold non-standard residues; d marks the D form. Peptide text beside a SMILES is read from it. * marks the point of attachment. ξ: configuration not given here. X3 = CC(C)(F)C(=N)NCCC[C@H](N[*:1])C(=O)[*:2]; X7 = N=C(NCCC[C@H](N[*:1])C(=O)[*:2])C1CC1; Bip = N[C@@H](Cc1ccc(-c2ccccc2)cc1)C(=O)O; Phe(3-Me) = Cc1cccc(C[C@H](N)C(=O)O)c1; Cyclopropanecarbonyl = O=C(C1CC1)*; Lys(Me2) = CN(C)CCCC[C@H](N)C(=O)O; hArg = N=C(N)NCCCC[C@H](N)C(=O)O; Cha = N[C@@H](CC1CCCCC1)C(=O)O; Cit = NC(=O)NCCC[C@H](N)C(=O)O; Thr(3ξ) = CC(O)[C@H](N)C(=O)O; 12Ado = NCCCCCCCCCCCC(=O)O; hSer = N[C@@H](CCO)C(=O)O; Carboxymethyl = O=C(O)C*; Orn = NCCC[C@H](N)C(=O)O; Aun = NCCCCCCCCCCC(=O)O; Dab = NCC[C@H](N)C(=O)O

Target: T1, PD-1/PD-L1 interaction (PE-labeled human PD-L1-Ig binding to Jurkat cell line over-expressing human PD-1) (Homo sapiens, UniProt Q15116)
T1 construct: expressed in transfected cells; host or cells: Jurkat
T1 sequence (Q15116 25-288): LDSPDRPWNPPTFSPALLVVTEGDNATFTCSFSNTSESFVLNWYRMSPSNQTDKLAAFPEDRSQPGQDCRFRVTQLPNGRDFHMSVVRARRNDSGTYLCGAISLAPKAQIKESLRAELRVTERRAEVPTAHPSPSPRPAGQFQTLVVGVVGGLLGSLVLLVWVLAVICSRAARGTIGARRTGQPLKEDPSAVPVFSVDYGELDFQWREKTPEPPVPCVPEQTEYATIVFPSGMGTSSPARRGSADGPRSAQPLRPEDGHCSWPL
Assay: Jurkat-PD-1 Cell Binding High-Content Screening Assay (CBA)
Assay type: cell-based
Settings: Jurkat cell line over-expressing human PD-1; PE-labeled PD-L1-Ig 20 nM final; read-out: Jurkat hPD1-PDL1 IC50
In short: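 Read-out is high-content imaging of cell-bound phycoerythrin-tagged PD-L1-Ig on fixed, Hoechst-counterstained Jurkat cells that over-express human PD-1. Compound exposure lasts 2 h at 37° C before the labeled ligand (20 nM final) is added for a further hour.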

SMILES	pIC50
Cc1cccc(C[C@@H]2NC(=O)[C@H](CC(=O)O)NC(=O)[C@H](Cc3ccc(OCC(=O)O)cc3)NC(=O)[C@H](CCCCNC(=N)N)NC(=O)CSC[C@@H](C(=O)N[C@@H](CCCN)C(=O)N[C@@H](CO)C(=O)NCCCCCCCCCCCC(=O)O)NC(=O)[C@H](C(C)O)NC(=O)[C@H](CCO)NC(=O)[C@H](CC3CCCCC3)NC(=O)[C@H](CCN)NC(=O)[C@@H](CC(C)C)NC(=O)[C@H](CCCN)NC(=O)[C@H](CCCNC(=N)N)NC(=O)[C@H](Cc3ccc(-c4ccccc4)cc3)NC(=O)[C@H](C(C)C)NC2=O)c1 (stereo partly drawn) [Compound 3574] ({CH2CO}-[hArg]Y(Carboxymethyl)D[Phe(3-Me)]V[Bip]R[Orn][dL][Dab][Cha][hSer][Thr(3ξ)]C[Orn]S[12Ado]-OH; thioether N-14)	7.57
Cc1cccc(C[C@@H]2NC(=O)[C@H](CC(=O)O)NC(=O)[C@H](Cc3ccc(OCC(=O)O)cc3)NC(=O)[C@H](CCCCNC(=N)N)NC(=O)CSC[C@@H](C(=O)N[C@@H](CCCN)C(=O)N[C@@H](CO)C(=O)NCCCCCCCCCCCC(=O)O)NC(=O)[C@H](C(C)O)NC(=O)[C@H](C(C)C)NC(=O)[C@H](CC3CCCCC3)NC(=O)[C@H](CCN)NC(=O)[C@@H](CC(C)C)NC(=O)[C@H](CCCN)NC(=O)[C@H](CCCNC(=N)N)NC(=O)[C@H](Cc3ccc(-c4ccccc4)cc3)NC(=O)[C@H](C(C)C)NC2=O)c1 (stereo partly drawn) [Compound 3575] ({CH2CO}-[hArg]Y(Carboxymethyl)D[Phe(3-Me)]V[Bip]R[Orn][dL][Dab][Cha]V[Thr(3ξ)]C[Orn]S[12Ado]-OH; thioether N-14)	7.49
Cc1cccc(C[C@@H]2NC(=O)[C@H](CC(=O)O)NC(=O)[C@H](Cc3ccc(OCC(=O)O)cc3)NC(=O)[C@H](CCCCNC(=N)N)NC(=O)CSC[C@@H](C(=O)N[C@@H](CCCN)C(=O)N[C@@H](CO)C(=O)NCCCCCCCCCCCC(=O)O)NC(=O)[C@H](CO)NC(=O)[C@H](C(C)C)NC(=O)[C@H](CC3CCCCC3)NC(=O)[C@H](CCN)NC(=O)[C@@H](CC(C)C)NC(=O)[C@H](CCCN)NC(=O)[C@H](CCCNC(=N)N)NC(=O)[C@H](Cc3ccc(-c4ccccc4)cc3)NC(=O)[C@H](C(C)C)NC2=O)c1 [Compound 3576] ({CH2CO}-[hArg]Y(Carboxymethyl)D[Phe(3-Me)]V[Bip]R[Orn][dL][Dab][Cha]VSC[Orn]S[12Ado]-OH; thioether N-14)	7.76
CC(=O)NCCCC[C@@H]1NC(=O)CSC[C@@H](C(=O)N[C@@H](CCCN)C(=O)N[C@@H](CO)C(=O)NCCCCCCCCCCCC(=O)O)NC(=O)[C@H](CO)NC(=O)[C@H](C(C)C)NC(=O)[C@H](CC2CCCCC2)NC(=O)[C@H](CCCNC(=N)N)NC(=O)[C@@H](CC(C)C)NC(=O)[C@H](CCCN)NC(=O)[C@H](CCCNC(=N)N)NC(=O)[C@H](Cc2ccc(-c3ccccc3)cc2)NC(=O)[C@H](C(C)C)NC(=O)[C@H](Cc2cccc(C)c2)NC(=O)[C@H](CC(=O)O)NC(=O)[C@H](Cc2ccc(OCC(=O)O)cc2)NC1=O [Compound 3577] ({CH2CO}-K(Ac)Y(Carboxymethyl)D[Phe(3-Me)]V[Bip]R[Orn][dL]R[Cha]VSC[Orn]S[12Ado]-OH; thioether N-14)	7.51
Cc1cccc(C[C@@H]2NC(=O)[C@H](CC(=O)O)NC(=O)[C@H](Cc3ccc(OCC(=O)O)cc3)NC(=O)[C@H](CCCCNC(=N)N)NC(=O)CSC[C@@H](C(=O)N[C@@H](CCCN)C(=O)N[C@@H](CO)C(=O)NCCCCCCCCCCCC(=O)O)NC(=O)[C@H](CO)NC(=O)[C@H](C(C)C)NC(=O)[C@H](CC3CCCCC3)NC(=O)[C@H](CCN)NC(=O)[C@@H](CC(C)C)NC(=O)[C@H](CCCNC(=N)N)NC(=O)[C@H](CCCNC(=N)C3CC3)NC(=O)[C@H](Cc3ccc(-c4ccccc4)cc3)NC(=O)[C@H](C(C)C)NC2=O)c1 [Compound 3578] ({CH2CO}-[hArg]Y(Carboxymethyl)D[Phe(3-Me)]V[Bip][X7]R[dL][Dab][Cha]VSC[Orn]S[12Ado]-OH; thioether N-14)	7.67
Cc1cccc(C[C@@H]2NC(=O)[C@H](CC(=O)O)NC(=O)[C@H](Cc3ccc(OCC(=O)O)cc3)NC(=O)[C@H](CCCCNC(=N)N)NC(=O)CSC[C@@H](C(=O)N[C@@H](CCN)C(=O)NCCCCCCCCCCC(=O)O)NC(=O)[C@H](C(C)O)NC(=O)[C@H](C(C)C)NC(=O)[C@H](CC3CCCCC3)NC(=O)[C@H](CCN)NC(=O)[C@@H](CC(C)C)NC(=O)[C@H](CCCN)NC(=O)[C@H](CCCNC(=N)C(C)(C)F)NC(=O)[C@H](Cc3ccc(-c4ccccc4)cc3)NC(=O)[C@H](Cc3ccc(O)cc3)NC2=O)c1 (stereo partly drawn) [Compound 3579] ({CH2CO}-[hArg]Y(Carboxymethyl)D[Phe(3-Me)]Y[Bip][X3][Orn][dL][Dab][Cha]V[Thr(3ξ)]C[Dab][Aun]-OH; thioether N-14)	7.74
CC(=O)NCCCC[C@@H]1NC(=O)[C@H](Cc2ccc(-c3ccccc3)cc2)NC(=O)[C@H](C(C)C)NC(=O)[C@H](Cc2cccc(C)c2)NC(=O)[C@H](CC(=O)O)NC(=O)[C@H](Cc2ccc(OCC(=O)O)cc2)NC(=O)[C@H](CCCCNC(=N)N)NC(=O)CSC[C@@H](C(=O)N[C@@H](CCN)C(=O)NCCCCCCCCCCC(=O)O)NC(=O)[C@H](C(C)O)NC(=O)[C@H](C(C)C)NC(=O)[C@H](CC2CCCCC2)NC(=O)[C@H](CCN)NC(=O)[C@@H](CC(C)C)NC(=O)[C@H](CCCN)NC1=O (stereo partly drawn) [Compound 3580] ({CH2CO}-[hArg]Y(Carboxymethyl)D[Phe(3-Me)]V[Bip]K(Ac)[Orn][dL][Dab][Cha]V[Thr(3ξ)]C[Dab][Aun]-OH; thioether N-14)	7.77
Cc1cccc(C[C@@H]2NC(=O)[C@H](CC(=O)O)NC(=O)[C@H](Cc3ccc(OCC(=O)O)cc3)NC(=O)[C@H](CCCCNC(=N)N)NC(=O)CSC[C@@H](C(=O)N[C@@H](CCN)C(=O)NCCCCCCCCCCC(=O)O)NC(=O)[C@H](C(C)O)NC(=O)[C@H](C(C)C)NC(=O)[C@H](CC3CCCCC3)NC(=O)[C@H](CCN)NC(=O)[C@@H](CC(C)C)NC(=O)[C@H](CCCN)NC(=O)[C@H](CCCNC(=O)C3CC3)NC(=O)[C@H](Cc3ccc(-c4ccccc4)cc3)NC(=O)[C@H](Cc3ccc(O)cc3)NC2=O)c1 (stereo partly drawn) [Compound 3581] ({CH2CO}-[hArg]Y(Carboxymethyl)D[Phe(3-Me)]Y[Bip][Orn](Cyclopropanecarbonyl)[Orn][dL][Dab][Cha]V[Thr(3ξ)]C[Dab][Aun]-OH; thioether N-14)	7.79
Cc1cccc(C[C@@H]2NC(=O)[C@H](CC(=O)O)NC(=O)[C@H](Cc3ccc(OCC(=O)O)cc3)NC(=O)[C@H](CCCCN(C)C)NC(=O)CSC[C@@H](C(=O)N[C@@H](CCCN)C(=O)N[C@@H](CO)C(=O)NCCCCCCCCCCCC(=O)O)NC(=O)[C@H](C(C)O)NC(=O)[C@H](CCO)NC(=O)[C@H](CC3CCCCC3)NC(=O)[C@H](CCN)NC(=O)[C@@H](CC(C)C)NC(=O)[C@H](CCCN)NC(=O)[C@H](CCCNC(N)=O)NC(=O)[C@H](Cc3ccc(-c4ccccc4)cc3)NC(=O)[C@H](C(C)C)NC2=O)c1 (stereo partly drawn) [Compound 3582] ({CH2CO}-[Lys(Me2)]Y(Carboxymethyl)D[Phe(3-Me)]V[Bip][Cit][Orn][dL][Dab][Cha][hSer][Thr(3ξ)]C[Orn]S[12Ado]-OH; thioether N-14)	7.15
